Counter-ions that a name gives are not always drawn.
Tests used:
[1] = system: mexB (PA) strain; assay: Combinational effect with antibacterial agent against Pseudomonas aeruginosa (Test Examples 2 and 4): mexB (PA) strain with LVFX, TC or AZT at 1/4 MIC, EC99; format: cell-based; conditions: for EC99, combinational effect with AZT, mexB (PA) / EC99, combinational effect with LVFX, mexB (PA) / EC99, combinational effect with TC, mexB (PA): mexB (PA) strain, Test Example 4; for EC99, combinational effect with AZT, mexB (PA) / EC99, mexB (PA), AZT: combined with AZT at 1/4 MIC; for EC99, combinational effect with LVFX, mexB (PA) / EC99, mexB (PA), LVFX: combined with LVFX at 1/4 MIC; for EC99, combinational effect with TC, mexB (PA) / EC99, mexB (PA), TC: combined with TC at 1/4 MIC; for EC99, mexB (PA), AZT / EC99, mexB (PA), TC / EC99, mexB (PA), LVFX: Table 52, Test Example 2, 16 to 20 hours culture, OD595
Method in brief: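 EC99 denotes the minimum test-compound concentration (range 0–800 μM) that suppresses ≥99% of growth, measured by OD595, when combined with ¼ MIC levofloxacin (LVFX), tetracycline or aztreonam. The efflux-pump mutant mexB (PA), expressing mainly MexAB-OprM, was inoculated at 10^4–5 CFU/well in CAMHB for 16–20 h.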

[2] = system: S-3769 strain; assay: Combinational effect with antibacterial agent against Pseudomonas aeruginosa (Test Examples 2 and 4): S-3769 strain with AMK or GM at 1/4 MIC, EC99; format: cell-based; conditions: for EC99, combinational effect with AMK, S-3769 strain / EC99, S-3769 strain, AMK: combined with AMK at 1/4 MIC; for EC99, combinational effect with AMK, S-3769 strain / EC99, combinational effect with GM, S-3769 strain: Test Example 4; for EC99, combinational effect with GM, S-3769 strain / EC99, S-3769 strain, GM: combined with GM at 1/4 MIC; for EC99, S-3769 strain, AMK / EC99, S-3769 strain, GM: Table 52, Test Example 2, 16 to 20 hours culture, OD595
Method in brief: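 EC99, the lowest test-compound concentration inhibiting growth by ≥99% (OD595), was measured with aminoglycoside AMK or GM held at ¼ MIC. Strain S-3769, a MexY-overexpressing clinical isolate, was cultured in CAMHB at 10^4 to 5 CFU/well for 16–20 h; compound range 0–800 μM.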

Compound	EC99, combinational effect with AZT, mexB (PA) [1]	EC99, combinational effect with LVFX, mexB (PA) [1]	EC99, combinational effect with TC, mexB (PA) [1]	EC99, combinational effect with AMK, S-3769 strain [2]	EC99, combinational effect with GM, S-3769 strain [2]	EC99, mexB (PA), AZT [1]	EC99, mexB (PA), TC [1]	EC99, S-3769 strain, AMK [2]	EC99, S-3769 strain, GM [2]	EC99, mexB (PA), LVFX [1]
CCSc1cc(F)ccc1CN1CCN(C(=O)[C@H](N)C2CCN(CCc3cscc3-c3ccccc3)CC2)CC1 [Example 608, Hydrochloride of (R)-2-amino-1-(4-(2-(ethylthio)-4-fluorobenzyl)piperazin-1-yl)-2-(1-(2-(4-phenylthiophen-3-yl)ethyl)piperidin-4-yl)ethan-1-one]	B (25 μM<EC99≤100 μM)	B (25 μM<EC99≤100 μM)	B (25 μM<EC99≤100 μM)	B (25 μM<EC99≤100 μM)	B (25 μM<EC99≤100 μM)					
CCOc1cccc(F)c1CN1CCN(C(=O)CN2CCC(CCc3ccccc3)(CNCCN)CC2)CC1 [Example 426, hydrochloride of 2-(4-(((2-aminoethyl)amino)methyl)-4-phenethylpiperidin-1-yl)-1-(4-(2-ethoxy-6-fluorobenzyl)piperazin-1-yl)ethan-1-one]						B (25 μM<EC99≤100 μM)	B (25 μM<EC99≤100 μM)	B (25 μM<EC99≤100 μM)	B (25 μM<EC99≤100 μM)	
CSc1cccnc1CN1CCN(C(=O)[C@H](N)C2CCN(CCc3cc(Cl)ccc3-c3ccccc3)CC2)CC1 [Example 536, Hydrobromide of (R)-2-amino-2-(1-(2-(4-chloro-[1,1-biphenyl]-2-yl)ethyl)piperidin-4-yl)-1-(4-((3-(methylthio)pyridin-2-yl)methyl)piperazin-1-yl)ethan-1-one]	A (12.5 μM<EC99≤25 μM)	A (12.5 μM<EC99≤25 μM)	B (25 μM<EC99≤100 μM)	B (25 μM<EC99≤100 μM)	B (25 μM<EC99≤100 μM)					
N[C@@H](C(=O)N1CCN(Cc2ccccc2C(F)(F)F)CC1)C1CCN(CCc2cc(Cl)ccc2-c2ccccc2)CC1 [Example 510, Hydrobromide of (R)-2-amino-2-(1-(2-(4-chloro-[1,1-biphenyl]-2-yl)ethyl)piperidin-4-yl)-1-(4-(2-(trifluoromethyl)benzyl)piperazin-1-yl)ethan-1-one]	B (25 μM<EC99≤100 μM)	B (25 μM<EC99≤100 μM)	A (12.5 μM<EC99≤25 μM)	A (12.5 μM<EC99≤25 μM)	B (25 μM<EC99≤100 μM)					
CSc1ccccc1CN1CCN(C(=O)[C@H](N)C2CCN(CCc3cc(Cl)ccc3-c3cc(O)ccc3F)CC2)CC1 [Example 612, (R)-2-amino-2-(1-(2-(4-chloro-2′-fluoro-5′-hydroxy-[1,1′-biphenyl]-2-yl)ethyl)piperidin-4-yl)-1-(4-(2-(methylthio)benzyl)piperazin-1-yl)ethan-1-one]	S (EC99≤12.5 μM)	S (EC99≤12.5 μM)	S (EC99≤12.5 μM)	S (EC99≤12.5 μM)	S (EC99≤12.5 μM)					
CCOc1cccc(F)c1CN1CCN(C(=O)[C@H](N)C2CCN(CCc3cc(Cl)ccc3-c3cc(N)ccc3F)CC2)CC1 [Example 559, Hydrobromide of (R)-2-amino-2-(1-(2-(5′-amino-4-chloro-2′-fluoro-[1,1-biphenyl]-2-yl)ethyl)piperidin-4-yl)-1-(4-(2-ethoxy-6-fluorobenzyl)piperazin-1-yl)ethan-1-one]	S (EC99≤12.5 μM)	S (EC99≤12.5 μM)	S (EC99≤12.5 μM)	A (12.5 μM<EC99≤25 μM)	S (EC99≤12.5 μM)					
CCSc1cccc(F)c1CN1CCN(C(=O)[C@H](N)C2CCN(CCc3cc(Cl)ccc3-c3ccccc3)CC2)CC1 [Example 27, (R)-2-amino-2-(1-(2-(4-chloro-[1,1′-biphenyl]-2-yl)ethyl)piperidin-4-yl)-1-(4-(2-(ethylthio)-6-fluorobenzyl)piperazin-1-yl)ethan-1-one]						A (12.5 μM<EC99≤25 μM)	S (EC99≤12.5 μM)	S (EC99≤12.5 μM)	S (EC99≤12.5 μM)	A (12.5 μM<EC99≤25 μM)
CCOc1cccc(F)c1CN1CCN(C(=O)[C@H](N)C2CCN(CCc3c(F)cccc3-c3ccccc3)CC2)CC1 [Example 52, Hydrobromide of (R)-2-amino-1-(4-(2-ethoxy-6-fluorobenzyl)piperazin-1-yl)-2-(1-(2-(3-fluoro-[1,l′-biphenyl]-2-yl)ethyl)piperidin-4-yl)ethan-1-one]						B (25 μM<EC99≤100 μM)	B (25 μM<EC99≤100 μM)	A (12.5 μM<EC99≤25 μM)	S (EC99≤12.5 μM)	B (25 μM<EC99≤100 μM)
CSc1ccccc1CN1CCN(C(=O)[C@H](N)C2CCN(CCc3cc(Cl)ccc3-c3ccccc3F)CC2)CC1 [Example 601, Hydrochloride of (R)-2-amino-2-(1-(2-(4-chloro-2′-fluoro-[1,1-biphenyl]-2-yl)ethyl)piperidin-4-yl)-1-(4-(2-(methylthio)benzyl)piperazin-1-yl) ethan-1-one]	A (12.5 μM<EC99≤25 μM)	A (12.5 μM<EC99≤25 μM)	A (12.5 μM<EC99≤25 μM)	B (25 μM<EC99≤100 μM)	B (25 μM<EC99≤100 μM)					
CCOc1cccc(F)c1CN1CCN(C(=O)[C@H](N)C2CCN(CCc3cc(Cl)ccc3-c3cccnc3)CC2)CC1 [Example 73, Hydrobromide of (R)-2-amino-2-(1-(5-chloro-2-(pyridin-3-yl)phenethyl)piperidin-4-yl)-1-(4-(2-ethoxy-6-fluorobenzyl)piperazin-1-yl)ethan-1-one]						A (12.5 μM<EC99≤25 μM)	B (25 μM<EC99≤100 μM)	S (EC99≤12.5 μM)	S (EC99≤12.5 μM)	C (100 μM<EC99)
CCOc1cccc(F)c1CN1CCN(C(=O)[C@H](N)C2CCN(CCc3cc(Cl)ccc3-c3cccc(N)c3F)CC2)CC1 [Example 557, Hydrobromide of (R)-2-amino-2-(1-(2-(3′-amino-4-chloro-2′-fluoro-[1,1-biphenyl]-2-yl)ethyl)piperidin-4-yl)-1-(4-(2-ethoxy-6-fluorobenzyl)piperazin-1-yl)ethan-1-one]	S (EC99≤12.5 μM)	S (EC99≤12.5 μM)	S (EC99≤12.5 μM)	A (12.5 μM<EC99≤25 μM)	A (12.5 μM<EC99≤25 μM)					
CCOc1cccc(F)c1CN1CCN(C(=O)[C@H](N)C2CCN(CCc3cc(Cl)ccc3-c3cccc(F)c3O)CC2)CC1 [Example 581, Hydrochloride of (R)-2-amino-2-(1-(2-(4-chloro-3′-fluoro-2′-hydroxy-[1,1-biphenyl]-2-yl)ethyl)piperidin-4-yl)-1-(4-(2-ethoxy-6-fluorobenzyl)piperazin-1-yl)ethan-1-one]	B (25 μM<EC99≤100 μM)	A (12.5 μM<EC99≤25 μM)	B (25 μM<EC99≤100 μM)	A (12.5 μM<EC99≤25 μM)	A (12.5 μM<EC99≤25 μM)					
CCOc1cccc(F)c1CN1CCN(C(=O)[C@H](N)C2CCN(CCc3cc(Cl)ccc3C3CC3)CC2)CC1 [Example 78, Hydrobromide of (R)-2-amino-2-(1-(5-chloro-2-cyclopropylphenethyl)piperidin-4-yl)-1-(4-(2-ethoxy-6-fluorobenzyl)piperazin-1-yl)ethan-1-one]						B (25 μM<EC99≤100 μM)	B (25 μM<EC99≤100 μM)	S (EC99≤12.5 μM)	S (EC99≤12.5 μM)	C (100 μM<EC99)

— patent US20250326744A1, “PIPERAZINE DERIVATIVE OR SALT THEREOF, AND PHARMACEUTICAL COMPOSITION” (priority 2022, published 2025)
